# Laboratory results: ChEMBL document CHEMBL1153455, “N-(4-(4-(2,3-dichloro- or 2-methoxyphenyl)piperazin-1-yl)butyl)heterobiarylcarboxamides with functionalized linking chains as high affinity and enantioselective D3 receptor antagonists” (J Med Chem, 2009)
# How the values were obtained:
# D(3) dopamine receptor [1] = target: T1, D(3) dopamine receptor (Homo sapiens, UniProt P35462); test: biochemical
# D(1A) dopamine receptor = D(1A) dopamine receptor (Homo sapiens, UniProt P21728); test: Displacement of [3H]SCH23390 from D1 receptor
# D(1A) dopamine receptor, sequence (P21728 whole entry): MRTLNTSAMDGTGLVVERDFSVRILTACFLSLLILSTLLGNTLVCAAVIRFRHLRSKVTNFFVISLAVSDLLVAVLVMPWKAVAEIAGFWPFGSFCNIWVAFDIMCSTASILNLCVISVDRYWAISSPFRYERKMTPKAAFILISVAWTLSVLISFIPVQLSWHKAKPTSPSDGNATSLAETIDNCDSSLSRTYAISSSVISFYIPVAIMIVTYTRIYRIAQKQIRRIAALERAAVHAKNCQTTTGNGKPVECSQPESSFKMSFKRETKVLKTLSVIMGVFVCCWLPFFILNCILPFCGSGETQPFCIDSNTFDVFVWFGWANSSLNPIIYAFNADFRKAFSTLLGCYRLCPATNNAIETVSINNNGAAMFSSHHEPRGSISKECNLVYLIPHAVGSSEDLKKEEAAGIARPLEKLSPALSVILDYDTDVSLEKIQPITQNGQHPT
# D(4) dopamine receptor = target: T2, D(4) dopamine receptor (Homo sapiens, UniProt P21917); test: biochemical
# T2 sequence (P21917 whole entry): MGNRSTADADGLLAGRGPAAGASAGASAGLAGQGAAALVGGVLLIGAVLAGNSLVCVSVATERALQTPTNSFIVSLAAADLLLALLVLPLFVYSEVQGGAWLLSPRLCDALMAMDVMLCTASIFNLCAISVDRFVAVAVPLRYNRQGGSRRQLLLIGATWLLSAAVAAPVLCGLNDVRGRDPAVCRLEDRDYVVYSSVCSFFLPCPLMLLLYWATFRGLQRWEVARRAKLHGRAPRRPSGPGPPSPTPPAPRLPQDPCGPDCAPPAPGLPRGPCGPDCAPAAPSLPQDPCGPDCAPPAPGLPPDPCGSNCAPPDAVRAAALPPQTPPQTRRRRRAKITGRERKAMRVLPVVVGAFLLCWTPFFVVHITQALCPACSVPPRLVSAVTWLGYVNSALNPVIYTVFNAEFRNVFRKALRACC
# D(3) dopamine receptor [2] = target: T1, D(3) dopamine receptor
# cells = conditions: Homo sapiens, HEK293
# Description: Antagonist activity at human D2 like receptor expressed in HEK293 cells assessed as inhibition of quinpirole-stimulated mitogenesis
# [3] = target: T3, 5-hydroxytryptamine receptor 1A (Homo sapiens, UniProt P08908); test: Displacement of [3H]8-OH-DPAT from 5HT1A receptor
# T3 sequence (P08908 whole entry): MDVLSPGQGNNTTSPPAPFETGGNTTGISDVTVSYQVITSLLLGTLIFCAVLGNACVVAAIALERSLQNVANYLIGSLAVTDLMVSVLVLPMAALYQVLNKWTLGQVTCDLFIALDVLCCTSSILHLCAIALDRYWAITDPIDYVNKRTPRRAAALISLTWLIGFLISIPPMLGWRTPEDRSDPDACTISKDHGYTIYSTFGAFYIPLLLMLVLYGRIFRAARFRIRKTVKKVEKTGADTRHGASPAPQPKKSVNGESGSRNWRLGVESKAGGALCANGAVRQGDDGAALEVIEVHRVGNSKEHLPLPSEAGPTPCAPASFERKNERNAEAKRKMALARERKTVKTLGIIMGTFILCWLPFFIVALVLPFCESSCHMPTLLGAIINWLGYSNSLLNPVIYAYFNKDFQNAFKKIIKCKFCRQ
# Homo sapiens = species on record: Homo sapiens; test: Selectivity of IC50 for human D2 like receptor to IC50 for human D3 receptor
# D(3) dopamine receptor [4] = target: T1, D(3) dopamine receptor; test: Agonist activity at human D3 receptor expressed in HEK293 cells assessed as stimulation of mitogenesis relative to quinpirole; format: functional, cell-based; design: concentration or dose not given beside the values
# [5] = Antagonist activity at human D3 receptor expressed in HEK293 cells assessed as inhibition of quinpirole-stimulated mitogenesis
# T1 sequence (P35462 whole entry): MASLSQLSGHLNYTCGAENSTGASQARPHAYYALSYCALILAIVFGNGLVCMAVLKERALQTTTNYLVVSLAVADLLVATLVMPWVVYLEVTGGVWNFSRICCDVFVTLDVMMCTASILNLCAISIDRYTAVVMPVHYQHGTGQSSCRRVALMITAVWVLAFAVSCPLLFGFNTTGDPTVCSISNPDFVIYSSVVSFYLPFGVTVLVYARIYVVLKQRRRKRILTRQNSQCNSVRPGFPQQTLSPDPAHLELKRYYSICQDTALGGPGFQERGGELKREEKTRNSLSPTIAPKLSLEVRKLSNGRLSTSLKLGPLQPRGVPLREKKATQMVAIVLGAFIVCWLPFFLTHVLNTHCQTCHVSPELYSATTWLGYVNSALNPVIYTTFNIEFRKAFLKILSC
SMILES,Ki (D(3) dopamine receptor [1]) [nM],Ki (D(1A) dopamine receptor) [µM],Ki (D(4) dopamine receptor) [nM],IC50 (cells) [nM],other results
COc1ccccc1N1CCN(C/C=C/CNC(=O)c2cc3ccccc3s2)CC1,2.61,0.678,–,–,–
COc1ccccc1N1CCN(CC(O)CCNC(=O)c2cc3cc(I)ccc3[nH]2)CC1 (stereo unspecified),3.6,> 10,455,–,–
COc1ccccc1N1CCN(CCCCNC(=O)c2cc3ccccc3[nH]2)CC1,–,–,476,–,Ki (D(3) dopamine receptor [2]): 0.32 nM
COc1ccccc1N1CCN(CCC(O)CNC(=O)c2cc3ccccc3[nH]2)CC1 (stereo unspecified),0.51,–,176,–,–
O=C(NCC(O)CCN1CCN(c2cccc(Cl)c2Cl)CC1)c1cc2ccccc2[nH]1 (stereo unspecified),–,> 10,1040,340,Ki [3]: 58.3 nM
COc1ccccc1N1CCN(CC(O)CCNC(=O)c2cc3ccccc3s2)CC1 (stereo unspecified),–,6.65,–,146,–
COc1ccc2[nH]c(C(=O)NCCC(O)CN3CCN(c4cccc(Cl)c4Cl)CC3)cc2c1 (stereo unspecified),1.2,> 10,> 10000,–,fold change (FC) (Homo sapiens): > 100; Activity (D(3) dopamine receptor [4]): 34.9%
COc1ccccc1N1CCN(C/C=C/CNC(=O)c2cc3ccccc3o2)CC1,11.3,0.99,–,–,–
COc1ccc2[nH]c(C(=O)NCCC(O)CN3CCN(c4ccccc4OC)CC3)cc2c1 (stereo unspecified),2.32,> 10,1530,–,fold change (FC) (Homo sapiens): > 100
O=C(NC/C=C/CN1CCN(c2cccc(Cl)c2Cl)CC1)c1cc2ccccc2s1,–,1.73,–,254,IC50 [5]: 9.62 nM; Ki [3]: 388 nM
COc1ccccc1N1CCN(CCCCNC(=O)c2cc3ccccc3s2)CC1,–,–,–,21.4,fold change (FC) (Homo sapiens): 100
COc1ccccc1N1CCN(CCCCNC(=O)c2cc3cc(I)ccc3o2)CC1,0.72,0.9,335,170,–
COc1ccccc1N1CCN(CC(O)CCNC(=O)c2cc3cc(F)ccc3[nH]2)CC1 (stereo unspecified),2.41,5.06,967,270,fold change (FC) (Homo sapiens): 100
O=C(NCCC(O)CN1CCN(c2cccc(Cl)c2Cl)CC1)c1cc2cc(F)ccc2[nH]1 (stereo unspecified),–,> 10,> 5000,–,–
O=C(NC/C=C/CN1CCN(c2cccc(Cl)c2Cl)CC1)c1cc2ccccc2[nH]1,0.44,0.91,640,175,Ki [3]: 193 nM
COc1ccccc1N1CCN(CC(O)CCNC(=O)c2cc3ccccc3[nH]2)CC1 (stereo unspecified),–,> 10,–,427,Ki [3]: 132 nM
CCCOc1ccccc1N1CCN(CC(O)CCNC(=O)c2cc3ccccc3[nH]2)CC1 (stereo unspecified),–,4.96,–,162,–
O=C(NCCCCN1CCN(c2cccc(Cl)c2Cl)CC1)c1cc2cc(I)ccc2o1,–,2.92,1720,1030,–

# Second part, led by results:
Ki (D(3) dopamine receptor [1]) [nM],Ki (D(1A) dopamine receptor) [µM],Ki (D(4) dopamine receptor) [nM],IC50 (cells) [nM],SMILES,other results
7.51,> 10,2140,–,COc1ccccc1N1CCN(CC(O)CCNC(=O)c2cc3ccccc3o2)CC1 (stereo unspecified),–
7.71,> 10,> 10000,–,O=C(NCCC(O)CN1CCN(c2cccc(Cl)c2Cl)CC1)c1cc2cc(I)ccc2o1 (stereo unspecified),Activity (D(3) dopamine receptor [4]): 23.6%
–,1.46,–,111,O=C(NC/C=C/CN1CCN(c2cccc(Cl)c2Cl)CC1)c1cc2ccccc2o1,Ki [3]: 58.8 nM
–,> 10,–,–,O=C(NCC[C@@H](O)CN1CCN(c2cccc(Cl)c2Cl)CC1)c1cc2ccccc2[nH]1,–
6.11,> 10,> 10000,–,O=C(NCCC(O)CN1CCN(c2cccc(Cl)c2Cl)CC1)c1cc2ccccc2o1 (stereo unspecified),Activity (D(3) dopamine receptor [4]): 22.6%
5.21,> 10,> 10000,–,O=C(NCCC(O)CN1CCN(c2cccc(Cl)c2Cl)CC1)c1cc2cc(I)ccc2[nH]1 (stereo unspecified),Activity (D(3) dopamine receptor [4]): 26%
–,> 10,–,–,O=C(NCC[C@H](O)CN1CCN(c2cccc(Cl)c2Cl)CC1)c1cc2ccccc2[nH]1,Activity (D(3) dopamine receptor [4]): 42.2%
7.5,3.69,1290,405,COc1ccccc1N1CCN(CC(O)CCNC(=O)c2cc3cc(I)ccc3o2)CC1 (stereo unspecified),–
